The results in this text go back to ChEMBL document CHEMBL1121969, “Synthesis and antiviral properties of some 2'-deoxy-5-(fluoroalkenyl)uridines” (1982).

Structures are written as SMILES. Values after ≈ are worked out from the molar mass of the structure shown.

The assay has as its system Human alphaherpesvirus 1. Description: Antiviral activity against various strains of Herpes Simplex virus type I. The assay is classed as functional. The following applies: read-out: ID50 (the source's name).
As to `O=c1[nH]c(=O)n([C@H]2C[C@H](O)[C@@H](CO)O2)cc1/C(F)=C(\F)Cl.O=c1[nH]c(=O)n([C@H]2C[C@H](O)[C@@H](CO)O2)cc1C(F)=C(Cl)Cl`, the IC50 was found to be 24 µg/mL.

For `O=c1[nH]c(=O)n([C@H]2C[C@H](O)[C@@H](CO)O2)cc1C(F)=C(Cl)Cl`, the IC50 is 26 µg/mL (≈ 76.2 µM).

Turning to `Nc1nc2c(ncn2COCCO)c(=O)[nH]1` [ACYCLOVIR], the IC50 was 0.8 µg/mL (≈ 3.55 µM).

As for `Nc1ncnc2c1ncn2[C@@H]1O[C@H](CO)[C@@H](O)[C@H]1O` [ADENOSINE], the IC50 turned out to be 21 µg/mL (≈ 78.6 µM).

As to `O=c1[nH]c(=O)n([C@H]2C[C@H](O)[C@@H](CO)O2)cc1/C=C/Br` [BRIVUDINE], the IC50 was 0.07 µg/mL (≈ 0.21 µM).

Consider `O=c1[nH]c(=O)n([C@H]2C[C@H](O)[C@@H](CO)O2)cc1I` [IDOXURIDINE], for which the IC50 came to 4.4 µg/mL (≈ 12.4 µM).
